ChEMBL document CHEMBL3046487, “Preparation and root growth-modulatory activity of N-substituted 2-acetylamino-2-ethoxycarbonyl-3-(2-furyl)propanamides” (2001)

Experiments:
Assay type in all cases: functional
Allium tuberosum [1] = experiment: Root growth inhibition of Allium tuberosum seedling at 1 x 10^-3 M after 10 days by agar dilution method relative to control; details: 240 h, read-out: GI
[2] = tested on: Brassica rapa subsp. oleifera; experiment: Root growth inhibition of Brassica rapa subsp. oleifera seedling at 1 x 10^-3 M after 7 days by agar dilution method relative to control; details: 168 h, read-out: GI
[3] = tested on: Brassica rapa subsp. oleifera; experiment: Root growth inhibition of Brassica rapa subsp. oleifera seedling at 1 x 10^-4 M after 7 days by agar dilution method relative to control; details: 168 h, read-out: GI
Allium tuberosum [4] = experiment: Root growth inhibition of Allium tuberosum seedling at 5 x 10^-5 M after 10 days by agar dilution method relative to control; details: 240 h, read-out: GI
[5] = tested on: Brassica rapa subsp. oleifera; experiment: Root growth inhibition of Brassica rapa subsp. oleifera seedling at 5 x 10^-4 M after 7 days by agar dilution method relative to control; details: 168 h, read-out: GI
[6] = tested on: Brassica rapa subsp. oleifera; experiment: Root growth inhibition of Brassica rapa subsp. oleifera seedling at 5 x 10^-5 M after 7 days by agar dilution method relative to control; details: 168 h, read-out: GI
Allium tuberosum [7] = experiment: Root growth inhibition of Allium tuberosum seedling at 1 x 10^-4 M after 10 days by agar dilution method relative to control; details: 240 h, read-out: GI
Allium tuberosum [8] = experiment: Root growth inhibition of Allium tuberosum seedling at 5 x 10^-4 M after 10 days by agar dilution method relative to control; details: 240 h, read-out: GI
Allium tuberosum [9] = experiment: Root growth promotion of Allium tuberosum seedling at 1 x 10^-3 M after 10 days by agar dilution method relative to control; details: 240 h, read-out: GI

SMILES	inhibition of growth at 1000 µM (Allium tuberosum [1])	inhibition of growth at 1000 µM [2]	inhibition of growth at 100 µM [3]	inhibition of growth at 50 µM (Allium tuberosum [4])	inhibition of growth at 500 µM [5]	inhibition of growth at 50 µM [6]	inhibition of growth at 100 µM (Allium tuberosum [7])	inhibition of growth at 500 µM (Allium tuberosum [8])	inhibition of growth at 1000 µM (Allium tuberosum [9])
CCOC(=O)C(Cc1ccco1)(NC(C)=O)C(=O)OCC	4%	26%							
CCOC(=O)C(Cc1ccco1)(NC(C)=O)C(=O)Nc1nccs1 (racemic)	29%	53%							
CCOC(=O)C(Cc1ccco1)(NC(C)=O)C(=O)Nc1nc2c(Cl)cccc2s1 (racemic)	70%	100%	50%	10%	91%	41%	10%	50%	
CCOC(=O)C(Cc1ccco1)(NC(C)=O)C(=O)Nc1ncc(C)s1 (racemic)	42%	61%							
CCCCNC(=O)C(Cc1ccco1)(NC(C)=O)C(=O)OCC (racemic)	4%	9%							
CCOC(=O)C(Cc1ccco1)(NC(C)=O)C(=O)NCc1ccco1 (racemic)		13%							36%
CCOC(=O)C(Cc1ccco1)(NC(C)=O)C(=O)Nc1ncc(Br)s1 (racemic)	56%	100%	80%	30%	98%	21%	50%	53%	
CCOC(=O)C(Cc1ccco1)(NC(C)=O)C(=O)Nc1ccc(Cl)cc1 (racemic)		49%							14%
CCOC(=O)C(Cc1ccco1)(NC(C)=O)C(=O)Nc1ncc([N+](=O)[O-])s1 (racemic)	54%	94%							
O=C(O)COc1ccc(Cl)cc1Cl [2,4-DICHLOROPHENOXYACETIC ACID]	100%	100%	98%	97%	99%	98%	99%	100%	
CCOC(=O)C(Cc1ccco1)(NC(C)=O)C(=O)Nc1ccccc1 (racemic)	7%	3%							
CCOC(=O)C(Cc1ccco1)(NC(C)=O)C(=O)O (configuration not stated)	47%	66%							
